Legend:
rats [1] = assay: Acute or sub-acute toxicity in rats; format: in vivo; conditions: large amounts administered
Excerpt: (§1) Free radicals are constantly formed in vivo. Some of these molecules are physiologically useful, but they can also result in pathological oxidative stress to cells and tissues. Endogenous defences include both antioxidants and repairing systems. However, excess production of free radicals, their production in inappropriate relative amounts or deficiencies in endogenous defences can have deleterious effects. Free radicals can cause oxidative damage to lipids, DNA, bio molecules, rises in the concentration of intracellular calcium, as well as activation of proteases, nucleases and protein kinases. Considerable evidence supports the view that oxidative damage involving free radicals occurs in most, if not all, human diseases. Oxidative stress is now recognized as an important contributor to the development of many human diseases including liver fibrosis, ischemia-reperfusion, atherosclerosis, several neurological disorders and age-related cancer as well as to process of ageing. Thus antioxidants and systems that can protect against oxidative stress are needed to maintain health and prolong the expected lifespan in metazoans. This has led to attempts to develop additional antioxidants to supplement the antioxidant defences of cells as potential therapeutic agents. […]

[2] = test system: acute carbon tetrachloride intoxication in rats (free-radical-mediated liver injury); conditions: CCl4 model, intra-peritoneal, aqueous suspension; cited from earlier work
[3] = test system: acute carbon tetrachloride intoxication in rats (free-radical-mediated liver injury); assay: C60-induced protection of the liver against acute toxicity of carbon tetrachloride in rats; format: in vivo; conditions: CCl4 model
Excerpt: Carbon tetrachloride is a classical hepatotoxicant that causes rapid liver damage progressing from steatosis to centrilobular necrosis. CCU intoxication in rodents is an important model far elucidation of the mechanism of action of hepatotoxic effects such as fatty degeneration, fibrosis, hepatocellular death, and carcinogenicity. These effects are consistent with the known induced metabolic activation of CCl4 to reactive intermediates, including CCl3″ and CCl02′ free radicals, and mobilization of intracellular calcium. Kupffer cells (liver resident macrophages) participate in the mechanism of toxicity of CCl4 in vivo by release of chemoattractants for neutrophils and a series of chemical mediators (cytokines). Both expression and synthesis of these cytokines are mainly modulated through redox-sensitive reactions. […] In a previous work, the effects of C60-pretreatments on acute carbon tetrachloride intoxication in rats, a classical model for studying free-radical-mediated liver injury was reported.

[4] = Dissolution of C60 in vegetable oil; format: physicochemical; conditions: in less than one week
Excerpt: as §1

mice = assay: Acute or sub-acute toxicity in mice; format: in vivo; conditions: large amounts administered
Excerpt: as §1

rats [5] = assay: Longevity and chronic toxicity study in rats, oral gavage; format: in vivo
Procedure: The rats were housed one per cage and acclimated for 14 days, before dosing. Three groups of 10 rats (10 months old, weighing 495±31 g) were administered daily for one week, then weekly until the end of the second month and then every two weeks until the end of the 7th month, by gavages with 1 ml of water or olive oil or Ceo dissolved in olive oil (0.8 mg/ml), respectively. The rats were weighed before each dosing. Routine observations following official recommendations (EC Commission Directive 2004/73/EC of 29 Apr. 2004 Adapting to Technical Progress for the Twenty-Ninth Time Council Directive 67/548/EEC on the Approximation of the Laws, Regulations and Administrative Provisions Relating to the Classification, Packaging and Labeling of Dangerous Substances. O.J. No. L1522004) were made on all animals inside and outside the cage once a day throughout the study for signs of departure from normal activity, morbidity and mortality.
This experiment was initiated after observing that Ceo is absorbed through oral administration. To study the chronic toxicity of Ceo we designed a protocol according to the general guidelines of US food and drug administration (Chronic Toxicity Studies with Rodents in Toxicological Principles for the Safety Assessment of Food Ingredients. Redbook 2000, revised July 2007, Chapter IV.C.5.a. IV.C.5.a.) with some modifications. […]

[6] = Pharmacokinetics and biodistribution of an oily solution after oral and intra-peritoneal administration in rats; format: in vivo, male Wistar rats
Procedure: Pharmacokinetic studies were carried out with male Wistar rats (weighing 200-220 g). Rats were housed in individual cages and maintained in an air-conditioned room (22-25° C.) on a 12 h light/dark cycle with water and food available. The rats were acclimated for 7 days and they were fasted overnight but with access to water, before treatment.
Under general anesthesia, a catheter was introduced into the rat right jugular vein, positioned subcutaneously with the tip in the inter-scapular region. The prepared rats were then allowed to recover for 24 h, and the blood catheters were flushed with 0.9% NaCl solution containing 20 I U/ml of heparin to avoid possible clot obstruction. Before Ceo administration, the rats were fasted overnight but with access to water. The same single dose of Ceo (4 mg/kg) was delivered orally, by a gavages needle, or intra-peritoneally to two groups of three rats. Blood (0.20 ml) was withdrawn via the canular prior to dosing (f=0) and at 15, 30, 60 min and then at 2, 4, 8, 10, 12, 24 and 48 h post-dosing. Antithrombin heparin (20 IU/ml) was added in each blood sample. After each blood collection 0.20 ml of sterile 0.9% NaCl solution were injected to the animal, to avoid hypovolemia. The rats were sacrificed 48 h after eo administration for organ collection (livers, spleens, and brains).
Consequently, the area under the curve (AUC) is about 5 times larger when Ceo is administered by i.p. route as compared to oral route.

c12c3c4c5c1c1c6c7c2c2c8c3c3c9c4c4c%10c5c5c1c1c6c6c%11c7c2c2c7c8c3c3c8c9c4c4c9c%10c5c5c1c1c6c6c%11c2c2c7c3c3c8c4c4c9c5c1c1c6c2c3c41 [[60]fullerene]
acute or sub-acute toxicity (rats [1]): no acute or sub-acute toxicity could be observed
day of better protection after administration [2]: 14 days
most effective dose [2]: about 2.5 g/kg of body-weight
activity in solution compared with suspension ([3]; compared with results of Nano Letters 2005): about 100 times
time of effect after administration ([3]; fullerene in solution): 24 h
amount dissolved per g of oil ([4]; olive oil): up to 1 mg of C60 per g
amount dissolved per g of oil ([4]; soybean oil): up to 1 mg of C60 per g
acute or sub-acute toxicity (mice): no acute or sub-acute toxicity could be observed
longevity (rats [5]; oral administration): increases significantly the longevity
behaviour or growth disorder (rats [5]; per os 1 ml of olive oil containing 0.8 mg C60 (FIG. 1)): No behaviour or growth disorder could be observed
area under the curve (AUC), i.p. route as compared to oral route ([6]; 4 mg/kg, i.p. versus oral): about 5 times
distribution, brain barrier ([6]; 4 mg/kg, oral or i.p.): can cross the brain barrier
absorption and elimination ([6]; intraperitoneal or oral administration): absorbed and eliminated

From patent publication US11471484B2, “Fullerene and its use to maintain good health and to prolong the expected lifespan of mammals” (priority 2011, dated 2022)
